According to PubChem BioAssay AID328 (DTP/NCI, 2004):
Where “and” joins values, the source holds several entries; their conditions need not be identical. Equal entries are not always repeated. Toxic doses and inconclusive results are not listed.

Test system: BDF1 mice, P388 leukemia ip, median survival T/C
Test: NCI In Vivo Anticancer Drug Screen. Data for tumor model P388 Leukemia (intraperitoneal) in B6D2F1 (BDF1) mice
Settings: endpoint: median survival time, higher = longer survival
Procedure, shortened: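 Survival ratio, drug arm over vehicle arm, in mice with a transplanted tumour.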

[1] = dose: 100.0 mg/kg/injection, schedule: Q01DX009 (ip), vehicle: saline with Tween-80
[2] = dose: 100.0 mg/kg/injection, schedule: Q04DX003 (ip), vehicle: saline with Tween-80
[3] = dose: 200.0 mg/kg/injection, schedule: Q01DX009 (ip), vehicle: saline with Tween-80
[4] = dose: 200.0 mg/kg/injection, schedule: Q04DX003 (ip), vehicle: saline with Tween-80
[5] = dose: 400.0 mg/kg/injection, schedule: Q04DX003 (ip), vehicle: saline with Tween-80

CC(=O)OCC(OC(C)=O)C(OC(C)=O)C(OC(C)=O)C(C#N)OC(C)=O (centres undefined)
T/C (dose: 75.0 mg/kg/injection, schedule: Q01DX009 (ip), vehicle: saline with Tween-80): 100 % of control
T/C [1]: 105 % of control
T/C [2]: 100 % of control
T/C (dose: 150.0 mg/kg/injection, schedule: Q01DX009 (ip), vehicle: saline with Tween-80): 100 % of control
T/C [3]: 120 % of control
T/C [4]: 100 % of control
T/C [5]: 100 % of control

COc1ccc(C=NCCc2ccc(OC)c(OC)c2)cc1OC
T/C (dose: 100.0 mg/kg/injection, schedule: Q01DX009 (ip), vehicle: saline): 97 % of control
T/C (dose: 200.0 mg/kg/injection, schedule: Q01DX009 (ip), vehicle: saline): 97 % of control
T/C (dose: 400.0 mg/kg/injection, schedule: Q01DX009 (ip), vehicle: saline): 105 % of control

CSc1ncnc2c1ncn2CO
T/C (dose: 30.0 mg/kg/injection, schedule: Q01DX009 (ip), vehicle: Klucel (hydroxypropylcellulose) (HPC)): 110 % of control
T/C (dose: 30.0 mg/kg/injection, schedule: Q01DX009 (ip), vehicle: saline): 108 % of control
T/C (dose: 100.0 mg/kg/injection, schedule: Q01DX009 (ip), vehicle: Klucel (hydroxypropylcellulose) (HPC)): 150 % of control
T/C [1]: 154 % of control
T/C (dose: 120.0 mg/kg/injection, schedule: Q01DX009 (ip), vehicle: Klucel (hydroxypropylcellulose) (HPC)): 150 % of control
T/C (dose: 150.0 mg/kg/injection, schedule: Q01DX009 (ip), vehicle: Klucel (hydroxypropylcellulose) (HPC)): 90 % of control
T/C [5]: 95 % of control

C(=Nc1ccc2c(c1)Cc1ccccc1-2)c1ccc2ccccc2c1
T/C (dose: 12.5 mg/kg/injection, schedule: Q04DX002 (ip), vehicle: saline with Tween-80): 103 % of control
T/C (dose: 25.0 mg/kg/injection, schedule: Q04DX002 (ip), vehicle: saline with Tween-80): 94 % of control
T/C (dose: 50.0 mg/kg/injection, schedule: Q04DX002 (ip), vehicle: saline with Tween-80): 97 % of control

CC(C(=O)O)c1ccc2c(c1)[nH]c1ccc(Cl)cc12 (centres undefined)
T/C [1]: 89 % of control
T/C [3]: 91 % of control

CCN(CC)C(=S)SSC(=S)N(CC)CC
T/C (dose: 75.0 mg/kg/injection, schedule: Q01DX001 (ip), vehicle: Klucel (hydroxypropylcellulose) (HPC)): 104 % of control
T/C (dose: 150.0 mg/kg/injection, schedule: Q01DX001 (ip), vehicle: Klucel (hydroxypropylcellulose) (HPC)): 104 % of control
T/C (dose: 300.0 mg/kg/injection, schedule: Q01DX001 (ip), vehicle: Klucel (hydroxypropylcellulose) (HPC)): 95 % of control

O=C(NC1CSSC1)C(Cc1ccccc1)N1C(=O)c2ccccc2C1=O (centres undefined)
T/C (dose: 25.0 mg/kg/injection, schedule: Q01DX009 (ip), vehicle: water): 104 % of control
T/C (dose: 25.0 mg/kg/injection, schedule: Q04DX003 (ip), vehicle: water): 90 % of control
T/C (dose: 50.0 mg/kg/injection, schedule: Q01DX009 (ip), vehicle: water): 95 % of control
T/C (dose: 50.0 mg/kg/injection, schedule: Q04DX003 (ip), vehicle: water): 107 % of control
T/C (dose: 100.0 mg/kg/injection, schedule: Q01DX009 (ip), vehicle: water): 108 % of control
T/C (dose: 100.0 mg/kg/injection, schedule: Q04DX003 (ip), vehicle: water): 98 % of control
T/C (dose: 200.0 mg/kg/injection, schedule: Q01DX009 (ip), vehicle: water): 108 % of control
T/C (dose: 200.0 mg/kg/injection, schedule: Q04DX003 (ip), vehicle: water): 100 % of control
T/C (dose: 400.0 mg/kg/injection, schedule: Q01DX009 (ip), vehicle: water): 100 % of control
T/C (dose: 400.0 mg/kg/injection, schedule: Q04DX003 (ip), vehicle: water): 98 % of control

CC[n+]1ccc(Cc2ccc([N+](=O)[O-])cc2)cc1
T/C (dose: 25.0 mg/kg/injection, schedule: Q01DX009 (ip), vehicle: Klucel (hydroxypropylcellulose) (HPC)): 104 % of control and 119 % of control
T/C (dose: 25.0 mg/kg/injection, schedule: Q04DX003 (ip), vehicle: Klucel (hydroxypropylcellulose) (HPC)): 100 % of control
T/C (dose: 50.0 mg/kg/injection, schedule: Q01DX009 (ip), vehicle: Klucel (hydroxypropylcellulose) (HPC)): 109 % of control
T/C (dose: 50.0 mg/kg/injection, schedule: Q04DX003 (ip), vehicle: Klucel (hydroxypropylcellulose) (HPC)): 100 % of control
T/C (dose: 100.0 mg/kg/injection, schedule: Q04DX003 (ip), vehicle: Klucel (hydroxypropylcellulose) (HPC)): 100 % of control

O=C1C=C(c2ccccc2)C(c2ccccc2)C(c2ccccc2)C1 (centres undefined)
T/C [2]: 100 % of control
T/C [4]: 91 % of control
T/C [5]: 86 % of control

COc1ccccc1NC(=O)Nc1ccc(N(C)C)cc1
T/C [2]: 90 % of control
T/C [4]: 118 % of control
T/C [5]: 90 % of control

C=CN1C(=O)N(C=C)C(C)(CC(C)C)C1=O (centres undefined)
T/C (dose: 50.0 mg/kg/injection, schedule: Q04DX003 (ip), vehicle: saline with Tween-80): 104 % of control
T/C [2]: 109 % of control
T/C [4]: 100 % of control
